The numbers were not newly measured in publication PMC3964610 (Methods in molecular biology (Clifton, N.J.), 2012), which cites them from elsewhere.

For this series the following is noted: I.P. 10 mg/kg, male Swiss Albino mice, plasma; ref [17].

Regarding `CCC(=O)N1CCN(c2ccc(-n3c(=O)ccc4cnc5ccc(-c6cnc7ccccc7c6)cc5c43)cc2C(F)(F)F)CC1` [Torin1, 1-(4-(4-propionylpiperazin-1-yl)-3-(trifluoromethyl)phenyl)-9-(quinolin-3-yl)benzo[h][1,6]naphthyridin-2(1H)-one], the area under the curve (AUC) was 5718 ng·h/mL, the highest concentration (Cmax) was 5121 ng/mL and the Tmax was 4.8 min.
